Data as given in PubChem BioAssay AID1963433 (Molecular Pharmacology Branch, DTP, NCI, 2024).
Each block holds one compound with its values, some of them ahead of it.

System: 772245-204-R-J1-PDC complex spheroid growth
Assay: Anticancer human tumor 772245-204-R-J1-PDC patient-derived rhabdomyosarcoma cell line growth inhibition [Asc]
Details: for IC50: curve of first compound; for viability, T/C: stronger effect = lower value
Procedure, shortened: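 Complex spheroids combining tumor cells with HUVEC endothelial cells and human MSCs, at 37 degrees C, 5% CO2; agents tested alone or combined, half-log dilutions from at or near clinical Cmax, or 10 microM if Cmax unknown.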
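Also: compound exposure lasted seven days.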
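For viability, T/C in this document: 100% = DMSO vehicle control viability.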

IC50 (second compound 0.01 µM): > 0.1 µM
IC50 (second compound 0.0316 µM): > 0.1 µM
IC50 (second compound 0.1 µM): > 0.1 µM
IC50 (second compound 0.316 µM): > 0.1 µM
IC50 (second compound 1 µM): > 0.1 µM
SMILES: NC1CCC(NC2CC2c2ccccc2)CC1 (stereo not given) + CNC(C)C(=O)NC1CN(S(=O)(=O)c2cccc(S(=O)(=O)N3CCC4CCC(C(=O)NC(c5ccccc5)c5ccccc5)N4C(=O)C(NC(=O)C(C)NC)C3)c2)CCC2CCC(C(=O)NC(c3ccccc3)c3ccccc3)N2C1=O
viability, T/C (second compound 0.01 µM, first compound 0.000316 µM): 111%
viability, T/C (second compound 0.01 µM, first compound 0.001 µM): 104%
viability, T/C (second compound 0.01 µM, first compound 0.00316 µM): 91.6%
viability, T/C (second compound 0.01 µM, first compound 0.01 µM): 105%
viability, T/C (second compound 0.01 µM, first compound 0.0316 µM): 98.5%
viability, T/C (second compound 0.01 µM, first compound 0.1 µM): 89.5%
viability, T/C (second compound 0.0316 µM, first compound 0.000316 µM): 85.7%
viability, T/C (second compound 0.0316 µM, first compound 0.001 µM): 91.9%
viability, T/C (second compound 0.0316 µM, first compound 0.00316 µM): 88.5%
viability, T/C (second compound 0.0316 µM, first compound 0.01 µM): 94.8%
viability, T/C (second compound 0.0316 µM, first compound 0.0316 µM): 90.7%
viability, T/C (second compound 0.0316 µM, first compound 0.1 µM): 88%
viability, T/C (second compound 0.1 µM, first compound 0.000316 µM): 92%
viability, T/C (second compound 0.1 µM, first compound 0.001 µM): 103%
viability, T/C (second compound 0.1 µM, first compound 0.00316 µM): 87.5%
viability, T/C (second compound 0.1 µM, first compound 0.01 µM): 88.4%
viability, T/C (second compound 0.1 µM, first compound 0.0316 µM): 90.9%
viability, T/C (second compound 0.1 µM, first compound 0.1 µM): 82.2%
viability, T/C (second compound 0.316 µM, first compound 0.000316 µM): 97.1%
viability, T/C (second compound 0.316 µM, first compound 0.001 µM): 90.1%
viability, T/C (second compound 0.316 µM, first compound 0.00316 µM): 102%
viability, T/C (second compound 0.316 µM, first compound 0.01 µM): 86.9%
viability, T/C (second compound 0.316 µM, first compound 0.0316 µM): 88.3%
viability, T/C (second compound 0.316 µM, first compound 0.1 µM): 98.7%
viability, T/C (second compound 1 µM, first compound 0.000316 µM): 100%
viability, T/C (second compound 1 µM, first compound 0.001 µM): 88.1%
viability, T/C (second compound 1 µM, first compound 0.00316 µM): 92.9%
viability, T/C (second compound 1 µM, first compound 0.01 µM): 86.6%
viability, T/C (second compound 1 µM, first compound 0.0316 µM): 78.9%
viability, T/C (second compound 1 µM, first compound 0.1 µM): 91.2%

IC50 (second compound 0.03 µM): > 0.1 µM
IC50 (second compound 0.0949 µM): > 0.1 µM
IC50 (second compound 0.3 µM): > 0.1 µM
IC50 (second compound 0.949 µM): > 0.1 µM
IC50 (second compound 3 µM): > 0.1 µM
SMILES: NC1CCC(NC2CC2c2ccccc2)CC1 (stereo not given) + CCN1C(C(=O)NC23CCC(C(=O)O)(CC2)CC3)C(c2cccc(Cl)c2F)C2(C(=O)Nc3cc(Cl)ccc32)C12CCCCC2
viability, T/C (second compound 0.03 µM, first compound 0.000316 µM): 103%
viability, T/C (second compound 0.03 µM, first compound 0.001 µM): 94.6%
viability, T/C (second compound 0.03 µM, first compound 0.00316 µM): 100%
viability, T/C (second compound 0.03 µM, first compound 0.01 µM): 86.5%
viability, T/C (second compound 0.03 µM, first compound 0.0316 µM): 108%
viability, T/C (second compound 0.03 µM, first compound 0.1 µM): 98.1%
viability, T/C (second compound 0.0949 µM, first compound 0.000316 µM): 96.3%
viability, T/C (second compound 0.0949 µM, first compound 0.001 µM): 96.3%
viability, T/C (second compound 0.0949 µM, first compound 0.00316 µM): 90.3%
viability, T/C (second compound 0.0949 µM, first compound 0.01 µM): 92.5%
viability, T/C (second compound 0.0949 µM, first compound 0.0316 µM): 84.9%
viability, T/C (second compound 0.0949 µM, first compound 0.1 µM): 93.5%
viability, T/C (second compound 0.3 µM, first compound 0.000316 µM): 106%
viability, T/C (second compound 0.3 µM, first compound 0.001 µM): 80.2%
viability, T/C (second compound 0.3 µM, first compound 0.00316 µM): 101%
viability, T/C (second compound 0.3 µM, first compound 0.01 µM): 85.5%
viability, T/C (second compound 0.3 µM, first compound 0.0316 µM): 111%
viability, T/C (second compound 0.3 µM, first compound 0.1 µM): 89.8%
viability, T/C (second compound 0.949 µM, first compound 0.000316 µM): 95.2%
viability, T/C (second compound 0.949 µM, first compound 0.001 µM): 80.8%
viability, T/C (second compound 0.949 µM, first compound 0.00316 µM): 83.6%
viability, T/C (second compound 0.949 µM, first compound 0.01 µM): 86.9%
viability, T/C (second compound 0.949 µM, first compound 0.0316 µM): 95.1%
viability, T/C (second compound 0.949 µM, first compound 0.1 µM): 96.3%
viability, T/C (second compound 3 µM, first compound 0.000316 µM): 70.2%
viability, T/C (second compound 3 µM, first compound 0.001 µM): 65.8%
viability, T/C (second compound 3 µM, first compound 0.00316 µM): 73.2%
viability, T/C (second compound 3 µM, first compound 0.01 µM): 77.9%
viability, T/C (second compound 3 µM, first compound 0.0316 µM): 73.1%
viability, T/C (second compound 3 µM, first compound 0.1 µM): 75.4%
